{
  "source": "paper PMC7490411",
  "about": "(Signal Transduction and Targeted Therapy, 2020)",
  "key": {"PDGFRB": {"test_system": "PDGFRB", "assay": "KINOMEscan", "format": "binding", "settings": "1000 nM"}, "CSNK2A2": {"test_system": "CSNK2A2", "assay": "KINOMEscan", "format": "binding", "settings": "1000 nM"}, "IRAK1": {"test_system": "IRAK1", "assay": "KINOMEscan", "format": "binding", "settings": "1000 nM"}, "LATS1": {"test_system": "LATS1", "assay": "KINOMEscan", "format": "binding", "settings": "1000 nM"}, "PRKCQ": {"test_system": "PRKCQ", "assay": "KINOMEscan", "format": "binding", "settings": "1000 nM"}, "TNIK": {"test_system": "TNIK", "assay": "KINOMEscan", "format": "binding", "settings": "1000 nM"}, "PAK4": {"test_system": "PAK4", "assay": "KINOMEscan", "format": "binding", "settings": "1000 nM"}, "MYLK4": {"test_system": "MYLK4", "assay": "KINOMEscan", "format": "binding", "settings": "1000 nM"}, "PIK3C2B": {"test_system": "PIK3C2B", "assay": "KINOMEscan", "format": "binding", "settings": "1000 nM"}, "ICK": {"test_system": "ICK", "assay": "KINOMEscan", "format": "binding", "settings": "1000 nM"}, "LKB1": {"test_system": "LKB1", "assay": "KINOMEscan", "format": "binding", "settings": "1000 nM"}, "CDK9": {"test_system": "CDK9", "assay": "KINOMEscan", "format": "binding", "settings": "1000 nM"}, "ACVR1": {"test_system": "ACVR1", "assay": "KINOMEscan", "format": "binding", "settings": "1000 nM"}, "RIPK2": {"test_system": "RIPK2", "assay": "KINOMEscan", "format": "binding", "settings": "1000 nM"}, "ITK": {"target": "T1, ITK (Homo sapiens, UniProt Q08881)", "T1 construct": "purchased Invitrogen (Carlsbad, CA, USA)", "T1 sequence (Q08881 1-620)": "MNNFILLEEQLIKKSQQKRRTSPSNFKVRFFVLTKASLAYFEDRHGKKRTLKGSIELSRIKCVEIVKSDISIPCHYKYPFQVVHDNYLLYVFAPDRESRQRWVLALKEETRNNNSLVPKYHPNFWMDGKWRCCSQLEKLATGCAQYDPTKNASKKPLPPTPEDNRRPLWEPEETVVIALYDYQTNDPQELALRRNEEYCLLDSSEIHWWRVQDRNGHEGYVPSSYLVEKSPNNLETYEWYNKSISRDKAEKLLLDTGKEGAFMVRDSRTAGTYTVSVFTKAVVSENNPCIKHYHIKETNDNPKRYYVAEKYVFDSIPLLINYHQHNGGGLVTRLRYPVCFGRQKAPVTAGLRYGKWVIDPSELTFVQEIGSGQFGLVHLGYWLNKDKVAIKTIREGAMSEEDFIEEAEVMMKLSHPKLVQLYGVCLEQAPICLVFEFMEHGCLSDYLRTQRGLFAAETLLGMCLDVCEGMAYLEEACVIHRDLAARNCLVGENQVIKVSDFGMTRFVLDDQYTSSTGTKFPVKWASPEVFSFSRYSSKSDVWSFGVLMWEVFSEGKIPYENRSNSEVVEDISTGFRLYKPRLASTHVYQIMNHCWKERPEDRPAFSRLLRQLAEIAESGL", "assay": "ADP-Glo biochemical kinase assay", "text": "(§1) The biochemical tests of BMX, BLK, JAK3, TXK, HER2, HER4, ITK, EGFR, and BTK were provided by Invitrogen (Carlsbad, CA, USA)."}, "JAK3": {"target": "T2, JAK3 (Homo sapiens, UniProt P52333)", "T2 construct": "purchased Invitrogen (Carlsbad, CA, USA)", "assay": "ADP-Glo biochemical kinase assay", "settings": "read-out: IC50 against JAK3", "text": "as §1"}, "TXK [1]": {"target": "T3, TXK (Homo sapiens, UniProt P42681)", "T3 construct": "purchased Invitrogen (Carlsbad, CA, USA)", "assay": "ADP-Glo biochemical kinase assay", "settings": "read-out: IC50 against TXK", "text": "as §1"}, "CSNK1A1L": {"test_system": "CSNK1A1L", "assay": "KINOMEscan", "format": "binding", "settings": "1000 nM"}, "ABL1-nonphosphorylated": {"test_system": "ABL1-nonphosphorylated", "assay": "KINOMEscan", "format": "binding", "settings": "1000 nM"}, "SIK": {"test_system": "SIK", "assay": "KINOMEscan", "format": "binding", "settings": "1000 nM"}, "ROCK2": {"test_system": "ROCK2", "assay": "KINOMEscan", "format": "binding", "settings": "1000 nM"}, "IRAK3": {"test_system": "IRAK3", "assay": "KINOMEscan", "format": "binding", "settings": "1000 nM"}, "KIT(V559D,T670I)": {"test_system": "KIT(V559D,T670I)", "assay": "KINOMEscan", "format": "binding", "settings": "1000 nM"}, "NLK": {"test_system": "NLK", "assay": "KINOMEscan", "format": "binding", "settings": "1000 nM"}, "EPHB4": {"test_system": "EPHB4", "assay": "KINOMEscan", "format": "binding", "settings": "1000 nM"}, "RET(V804M)": {"test_system": "RET(V804M)", "assay": "KINOMEscan", "format": "binding", "settings": "1000 nM"}, "AURKA": {"test_system": "AURKA", "assay": "KINOMEscan", "format": "binding", "settings": "1000 nM"}, "PFPK5(P.falciparum)": {"test_system": "PFPK5(P.falciparum)", "assay": "KINOMEscan", "format": "binding", "settings": "1000 nM"}, "[2]": {"test_system": "RSK4(Kin.Dom.1-N-terminal)", "assay": "KINOMEscan", "format": "binding", "settings": "1000 nM"}, "LATS2": {"test_system": "LATS2", "assay": "KINOMEscan", "format": "binding", "settings": "1000 nM"}, "[3]": {"test_system": "REC-1 cell (MCL)-inoculated xenograft", "assay": "REC-1 cell subcutaneous xenograft tumor model", "format": "in vivo", "settings": "for TGI: REC-1 xenograft, 14 days"}, "HIPK4": {"test_system": "HIPK4", "assay": "KINOMEscan", "format": "binding", "settings": "1000 nM"}, "FLT3(D835Y)": {"test_system": "FLT3(D835Y)", "assay": "KINOMEscan", "format": "binding", "settings": "1000 nM"}, "[4]": {"test_system": "BTK Y223 autophosphorylation", "assay": "signaling pathway western blot in TMD8, REC-1 and DOHH2 cells", "format": "cell-based", "settings": "4 h", "text": "The cells were then washed in PBS and lysed in cell lysis buffer. BTK, Phospho-BTK(Tyr223), PLCγ2, Phospho-PLCγ2 (Tyr1217), Phospho-AKT […], Phospho-NF-κB p65(Ser536), ERK, Phospho-p44/42MAPK (ERK1/2) (Thr202/Tyr204), AKT and GAPDH antibody (Cell signaling Technology) were used for immunoblotting."}, "PIK3CB": {"test_system": "PIK3CB", "assay": "KINOMEscan", "format": "binding", "settings": "1000 nM"}, "TESK1": {"test_system": "TESK1", "assay": "KINOMEscan", "format": "binding", "settings": "1000 nM"}, "CDC2L5": {"test_system": "CDC2L5", "assay": "KINOMEscan", "format": "binding", "settings": "1000 nM"}, "TXK [5]": {"target": "T3, TXK", "assay": "KINOMEscan", "format": "binding", "settings": "1000 nM"}, "MTOR": {"test_system": "MTOR", "assay": "KINOMEscan", "format": "binding", "settings": "1000 nM"}},
  "data": [
    {"smiles": "C=CC(=O)Nc1cc(Nc2cc(-c3cccc(NC(=O)c4cc5c(s4)CCCC5)c3C)cn(C)c2=O)ccc1N1CCN(CC)CC1", "note": "[CHMFL-BTK-85]", "values": [
      {"measurement": "Percent Control", "setting": "PDGFRB", "value": 68, "unit": "%"},
      {"measurement": "Percent Control", "setting": "CSNK2A2", "value": 98, "unit": "%"},
      {"measurement": "Percent Control", "setting": "IRAK1", "value": 100, "unit": "%"},
      {"measurement": "Percent Control", "setting": "LATS1", "value": 100, "unit": "%"},
      {"measurement": "Percent Control", "setting": "PRKCQ", "value": 80, "unit": "%"},
      {"measurement": "Percent Control", "setting": "TNIK", "value": 99, "unit": "%"},
      {"measurement": "Percent Control", "setting": "PAK4", "value": 100, "unit": "%"},
      {"measurement": "Percent Control", "setting": "MYLK4", "value": 94, "unit": "%"},
      {"measurement": "Percent Control", "setting": "PIK3C2B", "value": 92, "unit": "%"},
      {"measurement": "Percent Control", "setting": "ICK", "value": 100, "unit": "%"},
      {"measurement": "Percent Control", "setting": "LKB1", "value": 92, "unit": "%"},
      {"measurement": "Percent Control", "setting": "CDK9", "value": 100, "unit": "%"},
      {"measurement": "Percent Control", "setting": "ACVR1", "value": 99, "unit": "%"},
      {"measurement": "Percent Control", "setting": "RIPK2", "value": 94, "unit": "%"},
      {"measurement": "IC50", "setting": "ITK; read-out: IC50 against ITK", "value": "> 10", "unit": "µM"},
      {"measurement": "selectivity over ITK", "setting": "ITK; vs BTK", "value": "more than 1000 fold"},
      {"measurement": "IC50", "setting": "JAK3", "value": "2.72 ± 0.045", "unit": "µM"},
      {"measurement": "IC50", "setting": "TXK [1]", "value": "3.313 ± 0.017", "unit": "µM"},
      {"measurement": "Percent Control", "setting": "CSNK1A1L", "value": 100, "unit": "%"},
      {"measurement": "Percent Control", "setting": "ABL1-nonphosphorylated", "value": 76, "unit": "%"},
      {"measurement": "Percent Control", "setting": "SIK", "value": 99, "unit": "%"},
      {"measurement": "Percent Control", "setting": "ROCK2", "value": 100, "unit": "%"},
      {"measurement": "Percent Control", "setting": "IRAK3", "value": 100, "unit": "%"},
      {"measurement": "Percent Control", "setting": "KIT(V559D,T670I)", "value": 100, "unit": "%"},
      {"measurement": "Percent Control", "setting": "NLK", "value": 100, "unit": "%"},
      {"measurement": "Percent Control", "setting": "EPHB4", "value": 67, "unit": "%"},
      {"measurement": "Percent Control", "setting": "RET(V804M)", "value": 68, "unit": "%"},
      {"measurement": "Percent Control", "setting": "AURKA", "value": 92, "unit": "%"},
      {"measurement": "Percent Control", "setting": "PFPK5(P.falciparum)", "value": 100, "unit": "%"},
      {"measurement": "Percent Control", "setting": "[2]", "value": 100, "unit": "%"},
      {"measurement": "Percent Control", "setting": "LATS2", "value": 100, "unit": "%"},
      {"measurement": "TGI", "setting": "[3]; 100 mg/kg/day", "value": 65, "unit": "%"},
      {"measurement": "TGI", "setting": "[3]; 150 mg/kg/day", "value": 79, "unit": "%"},
      {"measurement": "toxicity signs in REC-1 xenograft model", "setting": "[3]; mouse, 100 mg/kg/day", "value": "without obvious signs of toxicity"},
      {"measurement": "Percent Control", "setting": "HIPK4", "value": 91, "unit": "%"},
      {"measurement": "Percent Control", "setting": "FLT3(D835Y)", "value": 100, "unit": "%"},
      {"measurement": "concentration blocking BTK Y223 autophosphorylation", "setting": "[4]", "value": "< 10", "unit": "nM"},
      {"measurement": "Percent Control", "setting": "PIK3CB", "value": 94, "unit": "%"},
      {"measurement": "Percent Control", "setting": "TESK1", "value": 96, "unit": "%"},
      {"measurement": "Percent Control", "setting": "CDC2L5", "value": 100, "unit": "%"},
      {"measurement": "percent of control binding at 1 µM", "setting": "TXK [5]", "value": 82, "unit": "%"},
      {"measurement": "Percent Control", "setting": "MTOR", "value": 100, "unit": "%"}
    ]}
  ]
}
